Data: ChEMBL document CHEMBL1143336, “Structure-activity relationship study on polyglutamine binding peptide QBP1” (Bioorg Med Chem, 2009)

Key:
[1] = Inhibition of thioredoxin-conjugated PolyQ-62 protein aggregation expressed in Escherichia coli DH5alpha at 20 uM relative to control
[2] = Inhibition of thioredoxin-conjugated PolyQ-62 protein aggregation expressed in Escherichia coli DH5alpha

Compound | inhibition [1] | IC50 [2]
CC[C@H](C)[C@H](NC(=O)CNC(=O)[C@@H]1CCCN1C(=O)[C@H](Cc1c[nH]c2ccccc12)NC(=O)[C@H](Cc1c[nH]c2ccccc12)NC(=O)[C@H](CCCCN)NC(=O)[C@@H](Cc1c[nH]c2ccccc12)NC(=O)[C@H](CC(N)=O)NC(=O)[C@H](CO)NC(C)=O)C(=O)N[C@@H](Cc1ccccc1)C(=O)N[C@@H](CC(=O)O)C(N)=O | 41.1% | –
CC[C@H](C)[C@H](NC(=O)CNC(=O)[C@@H]1CCCN1C(=O)[C@@H](Cc1c[nH]c2ccccc12)NC(=O)[C@H](Cc1c[nH]c2ccccc12)NC(=O)[C@H](CCCCN)NC(=O)[C@H](Cc1c[nH]c2ccccc12)NC(=O)[C@H](CC(N)=O)NC(=O)[C@H](CO)NC(C)=O)C(=O)N[C@@H](Cc1ccccc1)C(=O)N[C@@H](CC(=O)O)C(N)=O | 8.4% | –
Ac-SNWKWWPGIFA-NH2 | 67.8% | 15.6 µM
CC[C@H](C)[C@H](NC(=O)CNC(=O)[C@@H]1CCCN1C(=O)[C@H](Cc1c[nH]c2ccccc12)NC(=O)[C@@H](Cc1c[nH]c2ccccc12)NC(=O)[C@H](CCCCN)NC(=O)[C@H](Cc1c[nH]c2ccccc12)NC(=O)[C@H](CC(N)=O)NC(=O)[C@H](CO)NC(C)=O)C(=O)N[C@@H](Cc1ccccc1)C(=O)N[C@@H](CC(=O)O)C(N)=O | 6.4% | –
CC[C@H](C)[C@H](NC(=O)CNC(=O)[C@H]1CCCN1C(=O)[C@H](Cc1c[nH]c2ccccc12)NC(=O)[C@H](Cc1c[nH]c2ccccc12)NC(=O)[C@H](CCCCN)NC(=O)[C@H](Cc1c[nH]c2ccccc12)NC(=O)[C@H](CC(N)=O)NC(=O)[C@H](CO)NC(C)=O)C(=O)N[C@@H](Cc1ccccc1)C(=O)N[C@@H](CC(=O)O)C(N)=O | 25.7% | –
Ac-SNWKWWP-NH2 | 11.4% | –
Ac-SNWKWWPGIF-NH2 | 57.4% | 14.6 µM
Ac-NWKWWPGIFD-NH2 | 78.2% | 5 µM
Ac-KWWPGIFD-NH2 | 5.4% | –
Ac-WKWWPGIF-NH2 | 85.6% | 3.6 µM
CC[C@H](C)[C@H](NC(=O)[C@@H](C)NC(=O)[C@@H]1CCCN1C(=O)[C@H](Cc1c[nH]c2ccccc12)NC(=O)[C@H](Cc1c[nH]c2ccccc12)NC(=O)[C@H](CCCCN)NC(=O)[C@H](Cc1c[nH]c2ccccc12)NC(=O)[C@H](CC(N)=O)NC(=O)[C@H](CO)NC(C)=O)C(=O)N[C@@H](Cc1ccccc1)C(=O)N[C@@H](CC(=O)O)C(N)=O | 16.3% | –
Ac-SNWKWWPGAFD-NH2 | 9.9% | –
Ac-SNWKAWPGIFD-NH2 | -5.4% | –
Ac-SNAKWWPGIFD-NH2 | -4% | –
Ac-WKWWPGIFD-NH2 | 81.2% | 2.9 µM
Ac-SNWKWWPG-NH2 | 5.9% | –
Ac-WWPGIFD-NH2 | 5% | –
Ac-SNWKWWPGI-NH2 | 7.4% | –
CC[C@H](C)[C@H](NC(=O)CNC(=O)[C@@H]1CCCN1C(=O)[C@H](Cc1c[nH]c2ccccc12)NC(=O)[C@H](Cc1c[nH]c2ccccc12)NC(=O)[C@H](CCCCN)NC(=O)[C@H](Cc1c[nH]c2ccccc12)NC(=O)[C@@H](CC(N)=O)NC(=O)[C@H](CO)NC(C)=O)C(=O)N[C@@H](Cc1ccccc1)C(=O)N[C@@H](CC(=O)O)C(N)=O | 80.7% | 4.5 µM
Ac-ANWKWWPGIFD-NH2 | 78.2% | 6.3 µM

The next lines start with the values.

inhibition [1] | IC50 [2] | Compound
65.3% | > 20 µM | CC[C@H](C)[C@H](NC(=O)CNC(=O)[C@@H]1CCCN1C(=O)[C@H](Cc1c[nH]c2ccccc12)NC(=O)[C@H](Cc1c[nH]c2ccccc12)NC(=O)[C@H](CCCCN)NC(=O)[C@H](Cc1c[nH]c2ccccc12)NC(=O)[C@H](CC(N)=O)NC(=O)[C@H](CO)NC(C)=O)C(=O)N[C@H](Cc1ccccc1)C(=O)N[C@@H](CC(=O)O)C(N)=O
76.7% | 5 µM | CC[C@H](C)[C@H](NC(=O)CNC(=O)[C@@H]1CCCN1C(=O)[C@H](Cc1c[nH]c2ccccc12)NC(=O)[C@H](Cc1c[nH]c2ccccc12)NC(=O)[C@H](CCCCN)NC(=O)[C@H](Cc1c[nH]c2ccccc12)NC(=O)[C@H](CC(N)=O)NC(=O)[C@H](CO)NC(C)=O)C(=O)N[C@@H](Cc1ccccc1)C(=O)N[C@@H](CC(=O)O)C(N)=O
78.2% | 8.5 µM | Ac-SNWAWWPGIFD-NH2
82.2% | 4.3 µM | Ac-SAWKWWPGIFD-NH2
58.9% | 10 µM | Ac-SNWKWWAGIFD-NH2
9.9% | – | CC[C@H](C)[C@H](NC(=O)CNC(=O)[C@@H]1CCCN1C(=O)[C@H](Cc1c[nH]c2ccccc12)NC(=O)[C@H](Cc1c[nH]c2ccccc12)NC(=O)[C@@H](CCCCN)NC(=O)[C@H](Cc1c[nH]c2ccccc12)NC(=O)[C@H](CC(N)=O)NC(=O)[C@H](CO)NC(C)=O)C(=O)N[C@@H](Cc1ccccc1)C(=O)N[C@@H](CC(=O)O)C(N)=O
83.2% | 4.4 µM | CC[C@H](C)[C@H](NC(=O)CNC(=O)[C@@H]1CCCN1C(=O)[C@H](Cc1c[nH]c2ccccc12)NC(=O)[C@H](Cc1c[nH]c2ccccc12)NC(=O)[C@H](CCCCN)NC(=O)[C@H](Cc1c[nH]c2ccccc12)NC(=O)[C@H](CC(N)=O)NC(=O)[C@@H](CO)NC(C)=O)C(=O)N[C@@H](Cc1ccccc1)C(=O)N[C@@H](CC(=O)O)C(N)=O
33.2% | – | CC[C@H](C)[C@@H](NC(=O)CNC(=O)[C@@H]1CCCN1C(=O)[C@H](Cc1c[nH]c2ccccc12)NC(=O)[C@H](Cc1c[nH]c2ccccc12)NC(=O)[C@H](CCCCN)NC(=O)[C@H](Cc1c[nH]c2ccccc12)NC(=O)[C@H](CC(N)=O)NC(=O)[C@H](CO)NC(C)=O)C(=O)N[C@@H](Cc1ccccc1)C(=O)N[C@@H](CC(=O)O)C(N)=O
77.2% | 5 µM | CC[C@H](C)[C@H](NC(=O)CNC(=O)[C@@H]1CCCN1C(=O)[C@H](Cc1c[nH]c2ccccc12)NC(=O)[C@H](Cc1c[nH]c2ccccc12)NC(=O)[C@H](CCCCN)NC(=O)[C@H](Cc1c[nH]c2ccccc12)NC(=O)[C@H](CC(N)=O)NC(=O)[C@H](CO)NC(C)=O)C(=O)N[C@@H](Cc1ccccc1)C(=O)N[C@H](CC(=O)O)C(N)=O
11.4% | – | Ac-SNWKWWPGIAD-NH2
64.9% | 11.5 µM | CC[C@H](C)[C@H](NC(=O)[C@H](C)NC(=O)[C@@H]1CCCN1C(=O)[C@H](Cc1c[nH]c2ccccc12)NC(=O)[C@H](Cc1c[nH]c2ccccc12)NC(=O)[C@H](CCCCN)NC(=O)[C@H](Cc1c[nH]c2ccccc12)NC(=O)[C@H](CC(N)=O)NC(=O)[C@H](CO)NC(C)=O)C(=O)N[C@@H](Cc1ccccc1)C(=O)N[C@@H](CC(=O)O)C(N)=O
